Results published in patent US6518317B1, “Antiviral agents” (priority 1997, dated 2003).

Columns and labels:
[1] = test system: carcinogenesis caused by a two-stage carcinogenesis on skin; assay: Two-stage (DMBA/TPA) carcinogenesis on skin of mice; format: in vivo, mice of ICR strain; conditions: mouse, in vivo
Procedure: Hair on the back of mice of ICR strain (purchased from Nippon SLC; seven weeks age; female) was shaved and DMBA (dimethylbenzanthracene) as an initiator in a form of a solution in acetone was applied thereto at the dose of 50 μg/mouse.
Thus, FIG. 5 is a graph showing the anti-carcinogenic action of the cyclopentenone in which ordinate is a carcinogenic rate while abscissa is time (weeks). In the graph, open triangles, black triangles and open circles stand for a group treated with 2.5 mg of the cyclopentenone per mouse (12 mice in total), a group treated with 0.8 mg of the cyclopentenone per mouse (11 mice in total) and a control group (12 mice in total), respectively.

[2] = test system: Ad5 dlX [an adenovirus]; assay: Adenovirus hexon protein in HeLa cells treated with cyclopentenone before infection; format: cell-based; conditions: Examples 2-(2)~(6)
Procedure: After that, the cells were washed with the DMEM containing 5% of fetal bovine serum, then the DMEM containing 5% of fetal bovine serum which contained Ad5 dlX [an adenovirus; Saito, etal.; Journal ofVirology, volume 54, pages 711-719 (1985)] was added to the cells so that the cells were infected therewith and incubation was conducted for 20 hours. […] The medium was discarded, 1 ml of 10% trichloroacetic acid was added to each of the wells and the cells were recovered by a scraper.
Then SDS-PAGE and blotting of the treated cells obtained hereinabove were conducted by the method of Example 1 to detect the expression of hexon proteins of the adenovirus. Incidentally, anti-adenovirus hexon antibody (AB 1056; manufactured by Chemicon International Inc.) was used as the primary antibody.

[3] = test system: heat shock protein of 70 kDa; assay: Induction of heat shock protein of 70 kDa in HL-60 cells (SDS-PAGE and blotting); format: cell-based, human; conditions: HL-60 cells, as Table 1
Procedure: (1) An RPMI 1640 medium (5 ml) containing 10% of fetal bovine serum which contained 2×10^5 cells/ml of human promyelocytic leukemia cells HL-60 (ATCC CCL-240) was placed in each well of a six-well plate, incubated at 37° C. for 24 hours in the presence of 5% of CO2, then the cyclopentenone described in the referential example L was added thereto to make its final concentration 0, 10, 20, 30, 40, 50, or 100 μM and the incubation was further continued for eight hours more.
After completion of the incubation, cell numbers were counted and the cells were recovered by centrifugation and washed with phosphate-buffered saline (PBS) to prepare cyclopentenone-treated cells. In the meanwhile, cells which were heated at 45° C. for ten minutes followed by subjecting to the same incubation were prepared as well.
The cells treated as such were subjected to an SDS-polyacrylamid gel electrophoresis (SDS-PAGE) by a method mentioned in “Molecular Cloning” [Cold Spring Harbor Laboratory Press, (1989)]. The treated cells were suspended in an SDS-PAGE sample buffer to make the concentration 2.5×10^6 cells/ml, the resulting cell suspension was treated at 100° C. for ten minutes and each 5 μl thereof was applied to two sheets of SDS-PAGE gels (5% stacking gel; 10% separation gel) to conduct anelectrophoresis. One of the gels was Coomassie stained while another gel was subjected to a blotting to a polyvinylidene difluoride transfer membrane (Immobilon™, manufactured by Millipore, catalog no. IPVH000-10). The membrane was subjected to a blocking at 4° C. for one night with Block Ace (manufactured by Dainippon Pharmaceutical; catalog no. UK-B25).
The blocked membrane was made to react with monoclonal antibody HSP 72/73 (Ab-1) (manufactured by Oncogene Research Products, catalog no. HSP01) which would specifically react with heat-induced heat shock protein of 70 kDa and washed with TBS containing 0.05% of Tween 20 followed by further washing with TBS. After that, it was made to react with peroxidase-compounded secondary antibody HRP-Rabbit Anti-Mouse IgG (H+L) (manufactured by Zymed Laboratories, catalog no. 61-6520) and washed by the same manner as in the above operation. The membranes which were treated with primary and secondary antibodies as such were made to react with Renaissance™ (a chemiluminor reagent manufactured by Dupont NEN, catalog no. NEL-100) and photosensitized with an X-ray film to confirm the induction of heat shock protein of 70 kDa.
The result was that, by addition of cyclopentenone (20 to 30 μM), induction of heat shock protein of 70 kDa which is almost same as heat-treated at 45° C. for 10 minutes was confirmed. In Table 1, “+” indicates degree of intensity of induction and the more the numbers of “+”, the more the intensity of induction. Incidentally, “−” means that no induction was noted and “±” means the induction was slight.

[4] = test system: vesicular stomatitis virus; conditions: cited from earlier work
[5] = test system: Sendai virus; conditions: cited from earlier work

Row | SMILES | anti-promoter action in two-stage chemical carcinogenesis, compared with the cyclopentenone [1] | antiviral activity to adenovirus, compared with the cyclopentenone [2] | induction of heat shock protein of 70 kDa, compared with the cyclopentenone [3] | further results
1 | O=C1C=C[C@H](O)[C@H]1O (single isomer, unassigned) [(+)-cyclopentenone] | same result | Same results | Same results | 
2 | O=C1C=C[C@@H](O)[C@@H]1O (single isomer, unassigned) [(−)-cyclopentenone] | same result | Same results | Same results | 
3 | O=C1C=CCC1 [2-cyclopenten-1-one] |  |  |  | concentration required for inducing the HSP70 [4]: several hundred; synthesis of HSP70 [4]: induces; synthesis of vesicular stomatitis virus protein [4]: inhibits
4 | CCCCC[C@H](O)/C=C/[C@H]1C=CC(=O)[C@@H]1CCCCCCC(=O)O [prostaglandin Al, prostaglandin A1] |  |  |  | synthesis of HSP70 and HSP90 ([5]; animal cells infected with Sendai virus): induced; synthesis of virus protein ([5]; during the synthesis of HSP70 is induced): inhibited
